Values joined by “and” are separate entries in the source; they are usually repeats but may differ in a detail not shown here. Equal values may be shown once.
Tests used:
[1] = system: Primary human umbilical vein endothelial cells (HUVECs); test: MTT cell viability assay, HUVEC; assay type: cell-based; settings: HUVECs
Description: (§1) Human keratinocyte (HaCaT) cells were cultured in DMEM supplemented with 10% (v/v) FBS. Primary human umbilical vein endothelial cells (HUVECs) were cultured in EGM™-2 Bulletkit (Lonza) medium. HaCaT and HUVECs were harvested using TrypLE^TM Express (Gibco). Cells were seeded in microtitre plates at 3 × 10^5 cells/mL and incubated for 24 h at 37 °C with an antimicrobial compound ([…]) or Triton X100 at 1% (v/v). After removing the medium, cells were incubated with 500 mg/L MTT (Sigma-Aldrich) for 4 h. The crystals formed were solubilized with DMSO. Absorbance was recorded at 560 nm and the CC50 was determined.

[2] = MTT cell viability assay, HUVEC; assay type: cell-based, human; settings: human, primary HUVECs (umbilical vein endothelial cells); HUVEC, MTT, 24 h
Description: as §1

S. aureus biofilms = test: Biofilm susceptibility, resazurin-conversion assay on plasma-coated wells; assay type: cell-based, Staphylococcus aureus
Description: (§2) Biofilms were formed as previously described to mimic in vivo conditions that promote formation of coagulase-mediated biofilms.[16] Briefly, microtitre plates or glass-bottom culture dishes (MaTek Co., USA) were coated with either 20% (v/v) or 100% (v/v) human plasma, respectively, and inoculated with S. aureus at an OD600 ∼0.2. After 1 h, non-adherent bacteria were aspirated, replaced with fresh RPMI-1640 and biofilms allowed to form over 24 h at 37 °C. Pre-formed biofilms were treated for 24 h with either 5HE-C14-TMA, C14-TOA or C14-TTA or a positive control [ethanol at 40% (v/v)]. Biofilm viability was measured by (i) resazurin-conversion assay (in microtitre wells), or (ii) live/dead imaging (glass-bottom dishes). Conversion of the non-fluorescent redox dye, resazurin into the fluorescent resorufin was performed as described previously.[16] A 44 μM resazurin (Sigma-Aldrich, UK) solution in RPMI-1640 was added to an equal biofilm volume and incubated for 1 h at 37 °C. Fluorescence (excitation 544 nm, emission 590 nm) was quantified using a Perkin Elmer 2030 Multilabel Reader Victor^TM X3. Biofilms were stained with SYTO9 Green (at 13.36 μM) and propidium iodide (at 80 μM) (Molecular Probes®) for 1 h prior to washing. Four representative images at ×40 and ×100 were obtained per experimental group, per experiment using a Zeiss LSM 510 META confocal microscope. Each experiment was repeated at least three times. Fluorescence intensity was quantified using Image J1 software (http://imagej.net/Welcome).

[3] = system: S. aureus USA300 and SH1000 biofilms; test: Biofilm viability by live/dead imaging; assay type: cell-based, Staphylococcus aureus; settings: 128 mg/L, 24 h, both strains (USA300 MRSA and SH1000 MSSA), live/dead staining
Description: as §2, with “Four representative images at ×40 and ×100 were obtained per experimental group, per experiment using a Zeiss LSM 510 META confocal microscope. Each experiment was repeated at least three times.” left out

[4] = system: agr quorum sensing system; design: method as in PMID 24592914; settings: S. aureus; cited from earlier work
Iron chelation = assay type: physicochemical; settings: data not shown
[5] = system: Human keratinocyte (HaCaT) cells; test: MTT cell viability assay, HaCaT; assay type: cell-based; settings: HaCaT cells
Description: as §1

[6] = MTT cell viability assay, HaCaT; assay type: cell-based, Human; settings: human, HaCaT keratinocyte cells; HaCaT, MTT, 24 h
Description: as §1

CCCCCCCCCCCCCC(=O)C1=C(O)N[C@@H](CCO)C1=O [5HE-C14-TMA, 5-hydroxyethyl-3-tetradecanoyltetramic acid]
Selectivity index (SI, CC50/MIC) [1]: 3.5 | CC50 at 24 h [2]: 19 µM and 7 µg/mL | Reduction of biofilm viability (S. aureus biofilms; 1024 mg/L, 24 h treatment, depending on the strain, resazurin): 7–20 fold | Concentration giving complete killing / eradication of S. aureus biofilms (S. aureus biofilms; MRSA and MSSA biofilms): 512 to 1024 mg/L | Biofilm killing [3]: > 50% | IC50 [4]: 14 µM | Iron chelation (Iron chelation): is an iron chelator | Selectivity index (SI, CC50/MIC) [5]: 32 | CC50 at 24 h [6]: 181 µM and 64 µg/mL
